Data taken from paper PMC12736255, “Reinvestigating Pyrrol-2-One-Based Compounds: From Antimicrobial Agents to Promising Antitumor Candidates” (Pharmaceuticals, 2025).

Tests used:
Assay in all cases: NCI-60 single-dose screen
Type in all cases: cell-based
A498 = conditions: Homo sapiens; A498, 10^–5 M; read-out: GI (%)
From the text: (§1) In the next step, all synthesized compounds were electronically submitted and accepted for testing to the National Cancer Institute (NCI) platform, for the single dose (10^−5 M) screening against a panel of 60 human tumor cell lines, representing leukemia, melanoma, and cancers of the lung, colon, central nervous system, ovary, kidney, prostate, and breast. The results are summarized in Table 2, with the best values highlighted in red (Figures S1–S14).

A549/ATCC = conditions: Homo sapiens, 10^–5 M, read-out: GI (%)
From the text: as §1

ACHN = conditions: Homo sapiens, 10^–5 M, read-out: GI (%)
From the text: as §1

CAKI-1 = conditions: Homo sapiens; CAKI-1, 10^–5 M; read-out: GI (%)
From the text: as §1

COLO205 = conditions: Homo sapiens, COLO 205; COLO205, 10^–5 M; read-out: GI (%)
From the text: as §1

DU-145 = conditions: Homo sapiens; DU-145, 10^–5 M; read-out: GI (%)
From the text: as §1

HCT-116 = conditions: Homo sapiens; HCT-116, 10^–5 M; read-out: GI (%)
From the text: as §1

HL-60(TB) = conditions: Homo sapiens, 10^–5 M, read-out: GI (%)
From the text: as §1

HS 578T = conditions: Homo sapiens, 10^–5 M, read-out: GI (%)
From the text: as §1

HT-29 = conditions: Homo sapiens; HT-29, 10^–5 M; read-out: GI (%)
From the text: as §1

IGROV1 = conditions: Homo sapiens, IGROV-1; IGROV1, 10^–5 M; read-out: GI (%)
From the text: as §1

K-562 = conditions: Homo sapiens, K562; K-562, 10^–5 M; read-out: GI (%)
From the text: as §1

KM12 = conditions: Homo sapiens; KM12, 10^–5 M; read-out: GI (%)
From the text: as §1

LOX IMVI = conditions: Homo sapiens, 10^–5 M, read-out: GI (%)
From the text: as §1

M14 = conditions: Homo sapiens; M14, 10^–5 M; read-out: GI (%)
From the text: as §1

MALME-3M = conditions: Homo sapiens, 10^–5 M, read-out: GI (%)
From the text: as §1

MCF7 = conditions: Homo sapiens; MCF7, 10^–5 M; read-out: GI (%)
From the text: as §1

MDA-MB-231/ATCC = conditions: Homo sapiens, 10^–5 M, read-out: GI (%)
From the text: as §1

MDA-MB-435 = conditions: Homo sapiens; MDA-MB-435, 10^–5 M; read-out: GI (%)
From the text: as §1

NCI-H23 = conditions: Homo sapiens; NCI-H23, 10^–5 M; read-out: GI (%)
From the text: as §1

NCI-H322M = conditions: Homo sapiens, 10^–5 M, read-out: GI (%)
From the text: as §1

NCI-H522 = conditions: Homo sapiens; NCI-H522, 10^–5 M; read-out: GI (%)
From the text: as §1

NCI/ADR-RES = conditions: Homo sapiens, 10^–5 M, read-out: GI (%)
From the text: as §1

OVCAR-3 = conditions: Homo sapiens; OVCAR-3, 10^–5 M; read-out: GI (%)
From the text: as §1

OVCAR-4 = conditions: Homo sapiens; OVCAR-4, 10^–5 M; read-out: GI (%)
From the text: as §1

OVCAR-5 = conditions: Homo sapiens; OVCAR-5, 10^–5 M; read-out: GI (%)
From the text: as §1

PC-3 = conditions: Homo sapiens, PC-3, PC-3, 10^–5 M; read-out: GI (%)
From the text: as §1

RPMI-8226 = conditions: Homo sapiens; RPMI-8226, 10^–5 M; read-out: GI (%)
From the text: as §1

SF-539 = conditions: Homo sapiens; SF-539, 10^–5 M; read-out: GI (%)
From the text: as §1

SK-MEL-28 = conditions: Homo sapiens; SK-MEL-28, 10^–5 M; read-out: GI (%)
From the text: as §1

SK-MEL-5 = conditions: Homo sapiens; SK-MEL-5, 10^–5 M; read-out: GI (%)
From the text: as §1

SK-OV-3 = conditions: Homo sapiens; SK-OV-3, 10^–5 M; read-out: GI (%)
From the text: as §1

SN12C = conditions: Homo sapiens, 10^–5 M, read-out: GI (%)
From the text: as §1

SNB-19 = conditions: Homo sapiens; SNB-19, 10^–5 M; read-out: GI (%)
From the text: as §1

SNB-75 = conditions: Homo sapiens; SNB-75, 10^–5 M; read-out: GI (%)
From the text: as §1

SR = conditions: Homo sapiens, 10^–5 M, read-out: GI (%)
From the text: as §1

T-47D = conditions: Homo sapiens, T47D, 10^–5 M, read-out: GI (%)
From the text: as §1

TK-10 = conditions: Homo sapiens; TK-10, 10^–5 M; read-out: GI (%)
From the text: as §1

UACC-257 = conditions: Homo sapiens; UACC-257, 10^–5 M; read-out: GI (%)
From the text: as §1

SMILES | inhibition at 10 µM (A498) [%] | inhibition at 10 µM (A549/ATCC) [%] | inhibition at 10 µM (CAKI-1) [%] | inhibition at 10 µM (COLO205) [%] | inhibition at 10 µM (DU-145) [%] | inhibition at 10 µM (HCT-116) [%] | inhibition at 10 µM (HL-60(TB)) [%] | inhibition at 10 µM (HS 578T) [%] | inhibition at 10 µM (HT-29) [%] | inhibition at 10 µM (IGROV1) [%] | inhibition at 10 µM (K-562) [%] | inhibition at 10 µM (KM12) [%] | inhibition at 10 µM (LOX IMVI) [%] | inhibition at 10 µM (M14) [%] | inhibition at 10 µM (MALME-3M) [%] | inhibition at 10 µM (MCF7) [%] | inhibition at 10 µM (MDA-MB-231/ATCC) [%] | inhibition at 10 µM (MDA-MB-435) [%] | inhibition at 10 µM (NCI-H23) [%] | inhibition at 10 µM (NCI-H322M) [%] | also measured
O=C1C(Nc2ccc(I)cc2)=CC(c2ccc(Cl)cc2)N1c1ccc(I)cc1 (stereo not shown) [3c] | 19 | 4 | 19 | 0 | 10 | 25 | 0 | 55 | 19 | 16 | 10 | 17 | 11 | 0 | 17 | 47 | 5 | 0 | 13 | 0 | inhibition at 10 µM (ACHN): 21%; inhibition at 10 µM (NCI-H522): 24%; inhibition at 10 µM (NCI/ADR-RES): 1%; inhibition at 10 µM (OVCAR-3): 9%; inhibition at 10 µM (OVCAR-4): 34%; inhibition at 10 µM (OVCAR-5): 0%; inhibition at 10 µM (PC-3): 1%; inhibition at 10 µM (RPMI-8226): 30%; inhibition at 10 µM (SF-539): 11%; inhibition at 10 µM (SK-MEL-28): 12%; inhibition at 10 µM (SK-MEL-5): 18%; inhibition at 10 µM (SK-OV-3): 13%; inhibition at 10 µM (SN12C): 25%; inhibition at 10 µM (SNB-19): 7%; inhibition at 10 µM (SNB-75): 12%; inhibition at 10 µM (SR): 41%; inhibition at 10 µM (T-47D): 48%; inhibition at 10 µM (TK-10): 1%; inhibition at 10 µM (UACC-257): 23%
O=C1C(Nc2ccc(I)cc2)=CC(c2ccc3c(c2)OCO3)N1c1ccc(I)cc1 (stereo not shown) [3n] | 16 | 15 | 16 | 5 | 0 | 9 | 16 | 25 | 5 | 5 | 6 | 19 | 10 | 5 | 0 | 30 | 0 | 0 | 18 | 3 | inhibition at 10 µM (ACHN): 0%; inhibition at 10 µM (NCI-H522): 26%; inhibition at 10 µM (NCI/ADR-RES): 0%; inhibition at 10 µM (OVCAR-3): 10%; inhibition at 10 µM (OVCAR-4): 14%; inhibition at 10 µM (OVCAR-5): 0%; inhibition at 10 µM (PC-3): 1%; inhibition at 10 µM (RPMI-8226): 20%; inhibition at 10 µM (SF-539): 87%; inhibition at 10 µM (SK-MEL-28): 3%; inhibition at 10 µM (SK-MEL-5): 1%; inhibition at 10 µM (SK-OV-3): 13%; inhibition at 10 µM (SN12C): 16%; inhibition at 10 µM (SNB-19): 5%; inhibition at 10 µM (SNB-75): 20%; inhibition at 10 µM (SR): 27%; inhibition at 10 µM (T-47D): 22%; inhibition at 10 µM (TK-10): 0%; inhibition at 10 µM (UACC-257): 0%
O=C1C(Nc2ccc(I)cc2)=CC(c2ccc(O)cc2)N1c1ccc(I)cc1 (stereo not shown) [3g] | 48 | 22 | 41 | 42 | 58 | 61 | 75 | 100 | 96 | 27 | 78 | 80 | 44 | 52 | 83 | 83 | 44 | 38 | 45 | 20 | inhibition at 10 µM (NCI-H522): 70%; inhibition at 10 µM (NCI/ADR-RES): 44%; inhibition at 10 µM (OVCAR-3): 59%; inhibition at 10 µM (OVCAR-4): 85%; inhibition at 10 µM (OVCAR-5): 24%; inhibition at 10 µM (PC-3): 73%; inhibition at 10 µM (RPMI-8226): 100%; inhibition at 10 µM (SF-539): 69%; inhibition at 10 µM (SK-MEL-28): 42%; inhibition at 10 µM (SK-MEL-5): 27%; inhibition at 10 µM (SK-OV-3): 25%; inhibition at 10 µM (SN12C): 60%; inhibition at 10 µM (SNB-19): 17%; inhibition at 10 µM (SNB-75): 77%; inhibition at 10 µM (SR): 100%; inhibition at 10 µM (T-47D): 80%; inhibition at 10 µM (TK-10): 43%; inhibition at 10 µM (UACC-257): 42%
COc1ccccc1C1C=C(Nc2ccc(I)cc2)C(=O)N1c1ccc(I)cc1 (stereo not shown) [3i] | 6 | 6 | 28 | 0 | 13 | 3 | 0 | 84 | 5 | 57 | 9 | 9 | 2 | 10 | 45 | 50 | 25 | 0 | 30 | 0 | inhibition at 10 µM (NCI-H522): 37%; inhibition at 10 µM (NCI/ADR-RES): 3%; inhibition at 10 µM (OVCAR-3): 46%; inhibition at 10 µM (OVCAR-4): 60%; inhibition at 10 µM (OVCAR-5): 0%; inhibition at 10 µM (PC-3): 15%; inhibition at 10 µM (RPMI-8226): 32%; inhibition at 10 µM (SF-539): 31%; inhibition at 10 µM (SK-MEL-28): 12%; inhibition at 10 µM (SK-MEL-5): 4%; inhibition at 10 µM (SK-OV-3): 19%; inhibition at 10 µM (SN12C): 20%; inhibition at 10 µM (SNB-19): 0%; inhibition at 10 µM (SNB-75): 37%; inhibition at 10 µM (SR): 23%; inhibition at 10 µM (T-47D): 39%; inhibition at 10 µM (TK-10): 30%; inhibition at 10 µM (UACC-257): 13%
